# What was measured:
# [1] = system: processing of influenza viral hemagglutinin in cultured MDCK cells; conditions: cited from earlier work
# [2] = molecular target: T1, Drosophila Golgi α-mannosidase II (dGMII) (Drosophila melanogaster, UniProt Q24451); type: biochemical
# T1 sequence (Q24451 31-1108 limits assumed): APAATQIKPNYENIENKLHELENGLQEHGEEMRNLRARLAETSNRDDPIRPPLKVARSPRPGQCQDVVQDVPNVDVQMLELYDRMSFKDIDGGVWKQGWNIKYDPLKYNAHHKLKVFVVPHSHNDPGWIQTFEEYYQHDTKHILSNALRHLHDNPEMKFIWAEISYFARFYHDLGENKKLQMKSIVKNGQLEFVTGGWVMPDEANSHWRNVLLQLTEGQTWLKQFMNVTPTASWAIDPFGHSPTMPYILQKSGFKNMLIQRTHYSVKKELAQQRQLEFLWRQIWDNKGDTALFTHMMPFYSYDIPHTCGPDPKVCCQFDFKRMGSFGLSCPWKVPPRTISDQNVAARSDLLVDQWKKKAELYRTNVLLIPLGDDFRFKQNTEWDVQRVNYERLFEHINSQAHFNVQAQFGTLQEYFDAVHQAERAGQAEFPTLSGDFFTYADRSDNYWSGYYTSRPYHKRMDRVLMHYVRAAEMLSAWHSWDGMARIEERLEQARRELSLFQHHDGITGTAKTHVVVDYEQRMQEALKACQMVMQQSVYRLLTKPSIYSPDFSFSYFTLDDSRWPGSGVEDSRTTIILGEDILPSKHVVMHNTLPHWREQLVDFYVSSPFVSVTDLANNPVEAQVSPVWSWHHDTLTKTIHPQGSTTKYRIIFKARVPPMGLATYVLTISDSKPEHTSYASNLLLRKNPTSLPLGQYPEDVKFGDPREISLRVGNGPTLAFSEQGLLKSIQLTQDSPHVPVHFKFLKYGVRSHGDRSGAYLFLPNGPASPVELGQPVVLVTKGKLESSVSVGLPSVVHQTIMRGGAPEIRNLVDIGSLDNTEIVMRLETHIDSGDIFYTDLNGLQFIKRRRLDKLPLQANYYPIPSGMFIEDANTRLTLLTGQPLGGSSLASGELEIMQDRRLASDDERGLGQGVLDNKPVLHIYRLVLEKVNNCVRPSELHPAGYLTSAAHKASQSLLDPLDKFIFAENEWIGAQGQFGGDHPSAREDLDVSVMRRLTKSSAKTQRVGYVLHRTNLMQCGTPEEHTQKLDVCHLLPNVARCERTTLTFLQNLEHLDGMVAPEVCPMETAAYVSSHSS
compound,measurement,setting,value
"CS[C@@H]1[C@@H](N)[C@@H](O)[C@@H](O)[C@H]1O [Compound 1, Mannostatin A]",effect on processing of influenza viral hemagglutinin,[1],effectively blocked the processing of influenza viral hemagglutinin
"N[C@@H]1C[C@H](O)[C@H](O)[C@@H]1O [Compound 3, (1S, 2S, 3R, 4R)-4-aminocyclopentane-1,2,3-triol]",inhibitory activity in words,[2],very poor inhibitor
"CO[C@@H]1[C@@H](N)[C@@H](O)[C@@H](O)[C@H]1O [Compound 5, (1R, 2R, 3R, 4S, 5R)-4-Amino-5-methoxycyclopentane-1,2,3-triol]",fold enhancement of potency on changing hydroxyl of 4 to methoxy,[2]; relative to 4 (4a),~ 4 fold
